Source: article PMC11756644 (ACS chemical biology, 2015)

Target: T1, tPAD1 (Saccharomyces cerevisiae, UniProt P33751)
T1 sequence (P33751 55-242): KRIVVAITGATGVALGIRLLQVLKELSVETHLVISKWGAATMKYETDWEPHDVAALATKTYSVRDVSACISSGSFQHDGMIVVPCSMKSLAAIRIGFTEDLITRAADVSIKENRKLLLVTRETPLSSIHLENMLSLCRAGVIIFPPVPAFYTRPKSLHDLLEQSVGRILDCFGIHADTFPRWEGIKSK
Experiment: UV-visible spectrum of purified protein
Assay type: binding
Settings: co-purified from E. coli; oxidized FMN

For `Cc1cc2nc3c(=O)[nH]c(=O)nc-3n(C[C@H](O)[C@H](O)[C@H](O)COP(=O)(O)O)c2cc1C` [FMN], the “UV-visible spectrum of purified protein; LC-ESI-MS of released flavin” value was “The presence of FMN was confirmed by LC-ESI-MS. FMN was released from tPAD1 by precipitation”.
